# Data taken from patent publication US20260344665A1, “FUNGICIDAL COMPOUND” (priority 2022, published 2026).
# Tests used:
# Format in all cases: in vivo
# [1] = test system: Puccinia recondita f. sp. tritici; assay: Puccinia recondita f. sp. tritici / wheat / leaf disc curative (brown rust); conditions: for % reduction fungal growth: wheat
# Description: Leaf disks or leaf segments of various plant species were cut from plants grown in the greenhouse. The cut leaf discs or segments were placed in multiwell plates (24-well format) onto water agar. The leaf disks were sprayed with a test solution before (preventative) or after (curative) inoculation. Compounds to be tested were prepared as water solutions (max. 10 mg/ml) which were diluted to the appropriate concentration with 0.025% Tween20 just before spraying. The inoculated leaf discs or segments were incubated under defined conditions (temperature, relative humidity, light, etc.) according to the respective test system. A single evaluation of disease level was carried out 3-9 days days after inoculation, depending on the pathosystem. Percent disease control relative to the untreated check leaf discs or segments was then calculated.
# Puccinia recondita f. sp. tritici/Wheat/Leaf Disc Curative (Brown Rust)
# Wheat leaf segments cv. Kanzler were placed on agar in multiwell plates (24-well format). The leaf segments were inoculated with a spore suspension of the fungus. Plates were stored in darkness at 19 °C and 75% rh. The formulated test compound diluted in water was applied 1 day after inoculation. The leaf segments were incubated at 19 °C and 75% rh under a light regime of 12 h light/12 h darkness in a climate cabinet and the activity of a compound was assessed as percent disease control compared to untreated when an appropriate level of disease damage appeared in untreated check leaf segments (6-8 days after application).
# [2] = test system: Puccinia recondita f. sp. tritici; assay: Leaf painting assay in wheat seedling, Puccinia recondita preventive
# Description: (§1) Wheat seedlings of the variety Riband (for Zymoseptoria tritici trials) or variety Arina (for Puccinia recondite trials) were grown in the glasshouse until 14d after seeding. At this time, such seedlings usually have a first leaf fully emerged (designated L1), a second leaf fully emerged (L2) and a third leaf (L3) that is partially emerged and in the process of development. Using a permanent pen, two dots were applied on the second leaf such as to generate three segments of roughly equal size: Segment A (at the base), segment B (middle part) and segment C (tip of the leaf). A stock solution of the compound of Formula (I) was produced in water and of benzovindiflupyr in DMSO at a concentration of 10,000 ppm. […] The diluted compound was applied to the middle segment of L2 using a conventional cotton stick; the cotton stick was soaked in the diluted compound and rubbed several times on the adaxial leaf surface between the two marks. One day later, the complete plant was inoculated with a fungal spore suspension using a paint brush. The spore suspension was applied until before run-off.
# For infection with Puccinia recondita (preventive): The test plants were inoculated by spraying them with a spore suspension one day after application (spore suspension at 80,000 spores per ml in water supplemented with Tween20 at 0.1%). After an incubation period of 1 day at 20 °C and 95% rh, the inoculated test plants were kept at 20 °C and 60% rh in a greenhouse.
# (§2) The three segments of the leaf were evaluated individually.
# Zymoseptoria tritici = assay: Leaf painting assay in wheat seedling, Zymoseptoria tritici preventive
# Description: as §1
# For infection with Zymoseptoria tritici (preventive), the test plants were inoculated by spraying a spore suspension on them one day after application (1.5 Mio spores per ml in water supplemented with 0.01% Tween20). After an incubation period of 4 days at 22 °C/21 °C (day/night) and 95% rh, the inoculated test plants were kept at 22 °C/21 °C (day/night) and 70% rh in a greenhouse.
# as §2
# [3] = test system: Blumeria graminis f.sp. tritici; assay: Powdery mildew assay in wheat (haustoria formation)
# [4] = Experiment 1, 200.00 ppm, base segment, preventive
# [5] = Experiment 1, 200.00 ppm, middle segment (treated), preventive
# [6] = Experiment 1, 200.00 ppm, tip segment, preventive
# [7] = Experiment 3, 400.00 ppm, base segment, preventive
# [8] = Experiment 3, 400.00 ppm, middle segment (treated), preventive
# [9] = Experiment 3, 400.00 ppm, tip segment, preventive
compound,measurement,setting,value
CC(=O)NC1C(OCC(OC2OC(CO)C(O)C(O)C2O)C2OC(OC3C(O)C(CO)OC(OC4(CO)OC(C(O)CO)C(O)C4OC4OC(CO)C(O)C(O)C4O)C3O)C(O)C(O)C2OC2OC(C(O)CO)C(O)C(O)C2OC2OCC(OC(N)=O)C(O)C2O)OC(CO)C(O)C1O (stereo not shown) [compound of Formula (I)],curative activity to control Puccinia recondita,[1],curative (infection of pathogen followed by application of compound) activity
same,% reduction fungal growth,[1]; 0.80 ppm,0%
same,% reduction fungal growth,[1]; 2.50 ppm,0%
same,% reduction fungal growth,[1]; 7.40 ppm,0%
same,% reduction fungal growth,[1]; 22.00 ppm,90%
same,% reduction fungal growth,[1]; 67.00 ppm,100%
same,% reduction fungal growth,[1]; 200.00 ppm,100%
same,% reduction fungal growth,[2]; [4],0%
same,% reduction fungal growth,[2]; [5],48%
same,% reduction fungal growth,[2]; [6],31%
same,% reduction fungal growth,"[2]; Experiment 2, 200.00 ppm, base segment, preventive",10%
same,% reduction fungal growth,"[2]; Experiment 2, 200.00 ppm, middle segment (treated), preventive",79%
same,% reduction fungal growth,"[2]; Experiment 2, 200.00 ppm, tip segment, preventive",38%
same,% reduction fungal growth,[2]; [7],16%
same,% reduction fungal growth,[2]; [8],98%
same,% reduction fungal growth,[2]; [9],99%
same,% reduction fungal growth,"[2]; Experiment 4, 500.00 ppm, base segment, preventive",0%
same,% reduction fungal growth,"[2]; Experiment 4, 500.00 ppm, middle segment (treated), preventive",69%
same,% reduction fungal growth,"[2]; Experiment 4, 500.00 ppm, tip segment, preventive",82%
same,activity against growth of fungus,"[2]; leaf painting, preventive",active against growth
same,control on treated and above treated area,[2]; middle segment treated,provided control on the treated area (middle segment) as well as the above treated area (tip)
same,% reduction fungal growth,Zymoseptoria tritici; [4],24%
same,% reduction fungal growth,Zymoseptoria tritici; [5],93%
same,% reduction fungal growth,Zymoseptoria tritici; [6],99%
same,% reduction fungal growth,Zymoseptoria tritici; [7],1%
same,% reduction fungal growth,Zymoseptoria tritici; [8],96%
same,% reduction fungal growth,Zymoseptoria tritici; [9],100%
same,activity against growth of fungus,"Zymoseptoria tritici; leaf painting, preventive",active against growth
same,control on treated and above treated area,Zymoseptoria tritici; middle segment treated,provided control on the treated area (middle segment) as well as the above treated area (tip)
same,minimal effective concentration,"[3]; Blumeria graminis, 48 h, pre-treated wheat, read-out: concentration at which effect on haustoria formation is observed",≥ 25 µM
same,activity at 1 µM,"[3]; Blumeria graminis, 1 μM, 48 h after infecting, read-out: haustoria formation (% relative to control)",106%
same,activity at 25 µM,"[3]; Blumeria graminis, 25 μM, 48 h after infecting, read-out: haustoria formation (% relative to control)",59.1%
same,activity at 100 µM,"[3]; Blumeria graminis, 100 μM, 48 h after infecting, read-out: haustoria formation (% relative to control)",66.4%
same,reduction of haustoria formation,[3]; pre-treated wheat,reduction of haustoria formation
